Test results published in the NIST ThermoML archive (doi:10.1016/j.fluid.2013.09.029).

Conditions: Liquid; for mass density: 298.15 K, 101.33 kPa, Vibrating tube method; for vapor or sublimation pressure: Closed cell (Static) method

CC(C)(C)O [2-methylpropan-2-ol]
Conditions | mass density [kg/m3] | vapor or sublimation pressure [kPa]
– | 781.04 | –
330.9 K | – | 34.9
331.1 K | – | 35.3
340.6 K | – | 54
350.6 K | – | 82.6
360.1 K | – | 121.2
369.5 K | – | 171.4
378.5 K | – | 232.1
387.7 K | – | 310.6
396.7 K | – | 406.4

CCC(C)O (configuration not stated) [butan-2-ol]
Conditions | mass density [kg/m3] | vapor or sublimation pressure [kPa]
– | 802.47 | –
332.9 K | – | 18
342.9 K | – | 29.2
352.5 K | – | 45
361.3 K | – | 65
371.1 K | – | 96
381.1 K | – | 137.6
391.9 K | – | 197.5
401.4 K | – | 266.1
412 K | – | 361.8
421.6 K | – | 471.4

CCCCCO [pentan-1-ol]
Conditions | mass density [kg/m3] | vapor or sublimation pressure [kPa]
– | 811.04 | –
333.1 K | – | 3.1
344.8 K | – | 6
354.4 K | – | 10
362.4 K | – | 14.8
371.2 K | – | 21.9
381.6 K | – | 34.1
391.5 K | – | 50.2
401.7 K | – | 73.1
411.4 K | – | 102.1
422.4 K | – | 145.2
